# Test: co-administration of phenylethylamine with moiety/moieties that inhibit the enzyme MAO-B
# Assay type: in vivo
# Conditions: co-administered with a moiety/moieties that inhibited the effects of the enzyme MAO-B
# Source text: Therefore, the combination of phenylethylamine or derivative thereof and the MAO-B enzyme inhibitor may be formulated as a dietary supplement, other foodstuff, a pharmaceutical, a topical or transdermal compound or a vaccine. The Dietary Supplement Health and Education Act of 1994, commonly referred to as DSHEA, defines “dietary supplement” as any product (except tobacco) that contains at least one of the following: (1) a vitamin, (2) a mineral, (3) an herb or botanical, (4) an amino acid, (5) a dietary substance “for use to supplement the diet by increasing total dietary intake,” or (6) any concentrate, metabolite, constituent, extract, or combination of any of the aforementioned ingredients. Examples of dietary supplements include, but are not limited to nutritional products; sports performance products, including ergogenic sports performing products; weight loss products; and meal replacement products. Dietary supplements may exist in various forms, including, but not limited to tablets, capsules, caplets, powders, drinks including shakes, and solid food items including snack bars, etc. For purposes of the present invention, a foodstuff is defined as a substance that can be used or prepared for use as food or extracted from food.
smiles,measurement,value
"NCCc1ccccc1 [phenylethylamine, Phenethylamine]","amount of phenethylamine absorbed into the bloodstream, cells and tissue",increased amount
same,amount of phenethylamine allowed to reach the brain and period of time per dose administered before it is metabolized,"a greater amount of phenethylamine or a derivative thereof, is allowed to reach the brain for a greater period of time"
